{"source": "paper PMC9112895", "about": "“Selective Inhibition of Plasmodium falciparum ATPase 6 by Artemisinins and Identification of New Classes of Inhibitors after Expression in Yeast” (Antimicrobial Agents and Chemotherapy, 2022)", "type_in_all_cases": "cell-based", "key": {"PfATP6 [1]": {"biological_target": "T1, PfATP6 (Plasmodium falciparum, UniProt Q08853)", "T1 sequence (Q08853 whole entry)": "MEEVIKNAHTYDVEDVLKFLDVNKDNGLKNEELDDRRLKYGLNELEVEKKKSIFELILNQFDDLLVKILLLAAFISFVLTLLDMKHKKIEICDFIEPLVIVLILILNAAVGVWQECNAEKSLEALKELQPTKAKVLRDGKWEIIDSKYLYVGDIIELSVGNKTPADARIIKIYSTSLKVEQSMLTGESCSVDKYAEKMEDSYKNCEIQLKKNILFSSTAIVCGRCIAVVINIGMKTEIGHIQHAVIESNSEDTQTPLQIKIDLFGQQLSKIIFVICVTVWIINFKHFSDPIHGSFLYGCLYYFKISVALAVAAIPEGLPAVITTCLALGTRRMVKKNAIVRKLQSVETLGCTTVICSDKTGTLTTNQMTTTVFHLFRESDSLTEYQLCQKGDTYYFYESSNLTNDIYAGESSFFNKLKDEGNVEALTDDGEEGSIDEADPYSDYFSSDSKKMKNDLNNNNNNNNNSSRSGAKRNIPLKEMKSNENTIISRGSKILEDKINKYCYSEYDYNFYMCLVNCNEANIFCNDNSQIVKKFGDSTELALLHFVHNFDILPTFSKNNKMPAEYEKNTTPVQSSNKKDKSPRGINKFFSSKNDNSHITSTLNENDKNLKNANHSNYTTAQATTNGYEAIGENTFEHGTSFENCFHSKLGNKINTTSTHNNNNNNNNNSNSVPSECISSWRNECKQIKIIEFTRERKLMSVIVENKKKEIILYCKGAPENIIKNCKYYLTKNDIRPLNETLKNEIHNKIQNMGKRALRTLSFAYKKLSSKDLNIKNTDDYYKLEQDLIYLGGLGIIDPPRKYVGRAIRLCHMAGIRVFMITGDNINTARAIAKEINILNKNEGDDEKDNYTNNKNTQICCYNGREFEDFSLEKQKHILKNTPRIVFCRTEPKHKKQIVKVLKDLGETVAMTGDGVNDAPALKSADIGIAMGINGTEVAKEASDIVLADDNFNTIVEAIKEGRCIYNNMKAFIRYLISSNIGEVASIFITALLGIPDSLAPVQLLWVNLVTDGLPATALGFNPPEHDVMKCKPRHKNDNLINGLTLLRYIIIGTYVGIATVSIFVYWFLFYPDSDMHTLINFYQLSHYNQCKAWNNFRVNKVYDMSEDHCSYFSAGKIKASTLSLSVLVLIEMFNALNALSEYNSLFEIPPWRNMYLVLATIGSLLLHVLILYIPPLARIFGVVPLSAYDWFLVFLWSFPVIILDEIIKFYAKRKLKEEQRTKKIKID", "assay": "cell-based", "parameters": "pUGpd containing the yeast-optimized coding region of PfATP6 from Plasmodium falciparum; expressed in transfected cells; host or cells: Saccharomyces cerevisiae K667 and K667Δpdr5::HIS", "procedure": "(§1) The screening assay used here was developed from the protocol used by Pulcini et al. ([13]). A single colony of the yeast strain to be screened was picked and grown in 5 mL of selective medium until stationary phase was reached. The culture was diluted 100-fold in ampicillin-supplemented yeast extract-peptone-dextrose (YPD) medium to an OD at 620 nm (OD620) equivalent to that of lag phase. YPD medium was supplemented with an appropriate concentration of calcium, depending on the transformed strain. […] The optimal calcium concentration was periodically monitored and, if necessary, adjusted using a calcium concentration range of 10 to 30 mM. A final volume of 200 μL of the yeast culture was added to each well of a 96-well plate, with 5 technical replicates included per inhibitor. All inhibitors were dissolved in dimethyl sulfoxide (DMSO) unless otherwise stated. […] The 96-well plates were incubated at 30°C for 42 h. The yeast growth was estimated from the absorbance at 620 nm in a Tecan plate reader. Growth was normalized with the no-drug control to present data as percent growth. The data collected were analyzed using GraphPad Prism v9.0 (GraphPad software, San Diego, CA, U.S.A)."}, "PfATP6 [2]": {"biological_target": "T1, PfATP6", "assay": "Yeast whole-cell growth inhibition (functional rescue) assay, K667[PfATP6]", "parameters": "pUGpd containing the yeast-optimized coding region of PfATP6 from Plasmodium falciparum; expressed in transfected cells; host or cells: Saccharomyces cerevisiae K667 and K667Δpdr5::HIS", "procedure": "as §1"}, "A623E PfATP6": {"biological_target": "T2, A623E PfATP6 (Plasmodium falciparum, UniProt Q08853, A623E)", "T2 construct": "expressed in transfected cells; host or cells: Saccharomyces cerevisiae K667-derived strain", "T2 sequence (Q08853 1-1228 A623E)": "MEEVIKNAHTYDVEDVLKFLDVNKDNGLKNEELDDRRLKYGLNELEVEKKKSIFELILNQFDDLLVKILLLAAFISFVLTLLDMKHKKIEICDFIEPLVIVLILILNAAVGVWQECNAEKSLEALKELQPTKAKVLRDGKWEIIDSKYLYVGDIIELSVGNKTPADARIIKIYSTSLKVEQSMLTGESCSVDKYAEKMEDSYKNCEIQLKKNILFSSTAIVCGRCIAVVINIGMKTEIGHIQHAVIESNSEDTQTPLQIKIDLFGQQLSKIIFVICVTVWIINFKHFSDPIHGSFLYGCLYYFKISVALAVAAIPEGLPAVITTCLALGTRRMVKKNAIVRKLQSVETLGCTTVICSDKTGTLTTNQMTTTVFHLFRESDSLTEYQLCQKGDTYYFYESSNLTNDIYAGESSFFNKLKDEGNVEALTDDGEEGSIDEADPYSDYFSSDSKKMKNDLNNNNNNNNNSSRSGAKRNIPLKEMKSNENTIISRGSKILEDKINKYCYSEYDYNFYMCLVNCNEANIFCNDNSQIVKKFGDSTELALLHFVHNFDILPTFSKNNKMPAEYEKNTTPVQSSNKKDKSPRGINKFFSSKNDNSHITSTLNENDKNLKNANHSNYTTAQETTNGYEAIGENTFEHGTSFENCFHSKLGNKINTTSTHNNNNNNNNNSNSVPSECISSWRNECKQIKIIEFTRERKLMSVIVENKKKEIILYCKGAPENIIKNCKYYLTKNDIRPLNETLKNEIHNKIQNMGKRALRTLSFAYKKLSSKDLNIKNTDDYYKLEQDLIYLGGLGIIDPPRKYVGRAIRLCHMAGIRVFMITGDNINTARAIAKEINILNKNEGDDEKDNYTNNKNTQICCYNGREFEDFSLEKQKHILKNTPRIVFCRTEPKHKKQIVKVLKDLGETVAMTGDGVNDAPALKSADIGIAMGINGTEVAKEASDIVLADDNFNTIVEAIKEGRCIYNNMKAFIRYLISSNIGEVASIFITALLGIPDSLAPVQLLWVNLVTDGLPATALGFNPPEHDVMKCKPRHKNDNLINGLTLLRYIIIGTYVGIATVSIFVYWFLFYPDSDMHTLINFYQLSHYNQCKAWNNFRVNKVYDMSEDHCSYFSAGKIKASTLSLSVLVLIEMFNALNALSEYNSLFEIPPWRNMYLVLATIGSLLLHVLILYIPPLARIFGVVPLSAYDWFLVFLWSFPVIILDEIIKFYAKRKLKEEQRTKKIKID", "assay": "Yeast whole-cell assay, PfATP6 A623E mutant", "settings": "read-out: IC50 (mean ± SD)", "procedure": "Yeast transformations were performed using the method described by Gietz and Schiestl ([48]), and transformants were selected by an uracil auxotrophic marker. Transformations were confirmed by colony PCR. Both K667 and K667Δpdr5::HIS were transformed with the following plasmids: pUGpd plasmid as a vector-only control (derived from pRS316 [49]); br434 plasmid (derived from pRS316 [50]) containing the SERCA1a coding region from rabbit skeletal fast-twitch muscle (pbr434-SERCA1a); and pUGpd containing the yeast-optimized coding region of PfATP6 from Plasmodium falciparum (pUGpd-PfATP6). Site-directed mutagenesis was performed on the SERCA1a coding region to produce the mutation E255L in the protein. Mutations were also introduced into the PfATP6 coding region to produce mutations L263E, A623E, and S769N and the double mutation A623E/S769N ([13]).\nThe screening assay used here was developed from the protocol used by Pulcini et al. ([13]). […] The optimal calcium concentration was periodically monitored and, if necessary, adjusted using a calcium concentration range of 10 to 30 mM. […] The yeast growth was estimated from the absorbance at 620 nm in a Tecan plate reader. […] The data collected were analyzed using GraphPad Prism v9.0 (GraphPad software, San Diego, CA, U.S.A)."}}}
{"smiles": "CC(=O)C1=C(O)[C@@H]2[C@H]3c4c[nH]c5cccc(c45)C[C@H]3C(C)(C)N2C1=O", "note": "[CPA, cyclopiazonic acid]", "values": [{"measurement": "approximate IC10", "setting": "PfATP6 [1]; fitness cost assays, drug pressure", "result": "~5", "unit": "µM"}, {"measurement": "IC80", "setting": "PfATP6 [1]; read-out: approximate yeast IC80", "result": "~5", "unit": "µM"}, {"measurement": "IC50", "setting": "PfATP6 [2]", "result": 11.6, "unit": "µM"}, {"measurement": "IC50", "setting": "A623E PfATP6", "result": 5.86, "unit": "µM"}]}
